Results on 1 substance are retold here after patent US9220705B2, “Method of treating colorectal cancer” (priority 2013, dated 2015).

What is called IC50 is the concentration that gives 50% inhibition.

The subject of experiment [1] is 2008 ovarian cancer cells. The experiment can be described thus: MTT cytotoxicity assay, cross-resistance profile. It is filed as cell-based, human. The conditions noted are these: 72 h. From the text:
(§1) Human breast (MCF-7) and colon (HCT-15, DDL1, SW480 and CaCo-2) carcinoma cell lines along with melanoma (A375) were obtained from the American Type Culture Collection (ATCC, Rockville, Md.). A431 are human cervical carcinoma cells kindly provided by Prof. F. Zunino (Molecular Pharmacology Unit, Experimental Oncology and Molecular Medicine, Istituto Nazionale dei Tumori, Milan, Italy). […] G. Marverti (Dept. of Biomedical Science, University of Modena, Italy). LoVo human colon-carcinoma cell line and its multidrug-resistant sublime (LoVo MDR) were kindly provided by Prof F. Maj one (Department of Biology of Padova University, Italy). […] Cell lines were maintained in the logarithmic phase at 37° C. in a 5% carbon dioxide atmosphere using the following culture media containing 10% fetal calf serum (Euroclone, Milan, Italy), antibiotics (50 units mL^−1 penicillin and 50 μg mL^−1 streptomycin), and 2 mM L-glutamine in: i) RPMI-1640 medium (Euroclone) for MCF-7, HCT-15, A431, DLD 1, 2008, and C13* cells; ii) F-12 HAM'S (Sigma Chemical Co.) for LoVo, LoVo MDR, and LoVo-OXP cells; iii) DMEM for A375 and SW 480 cells; and iv) MEM for CaCo-2 cells.
(§2) The growth inhibitory effect towards tumor cell lines was evaluated by means of the MTT (3-(4,5-dimethylthiazol-2-yl)-2,5-diphenyltetrazolium bromide) assay (Alley, M. C., et al., Cancer Res. 1988, 48, 589-601).
(§3) Briefly, depending upon the growth characteristics of the cell line, 3-8×10^3 cells well^−1, were seeded in 96-well microplates in growth medium (100 μL) and then incubated at 37° C. in a 5% carbon dioxide atmosphere. After 24 h, the medium was removed and replaced with a fresh one containing the compound to be studied, at the appropriate concentration, dissolved in 0.9% sodium chloride solution just before use. Triplicate cultures were established for each treatment. After 72 h, each well was treated with […] of a 5 mg mL^−1 MTT saline solution and, after 5 h of incubation, 100 μL of a sodium dodecylsulfate (SDS) solution in 0.01 M HCl were added. After an overnight incubation, the inhibition of cell growth induced by the tested complexes was determined by measuring the absorbance of each well at 570 nm using a BioRad 680 microplate reader. Mean absorbance for each drug dose was expressed as percentage of the control and plotted vs. drug concentration. Dose-response curves were fitted and IC50 values were calculated with four parameter logistic model (4PL).
(§4) A LoVo cell line retaining a multidrug resistance phenotype was also considered (LoVo MDR). Cross-resistance profiles were evaluated by means of the resistance factor (RF), which is defined as the ratio between the IC50 value for the resistant cells and that arising from the sensitive cells (Table 2).
Background: Formazan colour is commonly taken as a measure of viable cells.

For experiment [2], the system named is LoVo-OXP oxaliplatin resistant colon cancer cells. Description: MTT cytotoxicity assay, cross-resistance profile. It is filed as cell-based, human.
Excerpt: as §1, §2, §3, §4

The test system of experiment [3] is C13* cisplatin resistant ovarian cancer cells. Description: MTT cytotoxicity assay, cross-resistance profile. Format: cell-based, human.
Excerpt: as §1, §2, §3, §4

The subject of experiment [4] is LoVo colon cancer cells. Description: MTT cytotoxicity assay, cross-resistance profile. Format: cell-based, human. The conditions noted are these: 72 h.
Excerpt: (§5) Human breast (MCF-7) and colon (HCT-15, DDL1, SW480 and CaCo-2) carcinoma cell lines along with melanoma (A375) were obtained from the American Type Culture Collection (ATCC, Rockville, Md.). A431 are human cervical carcinoma cells kindly provided by Prof. F. Zunino (Molecular Pharmacology Unit, Experimental Oncology and Molecular Medicine, Istituto Nazionale dei Tumori, Milan, Italy). […] G. Marverti (Dept. of Biomedical Science, University of Modena, Italy). LoVo human colon-carcinoma cell line and its multidrug-resistant sublime (LoVo MDR) were kindly provided by Prof F. Maj one (Department of Biology of Padova University, Italy).
as §2, §3, §4

In experiment [5] the test system is HCT-15. Description: MTT cytotoxicity assay, 72 h. The conditions noted are these: HCT-15, colon. Format: cell-based, human.
Excerpt: as §1, §2, §3
(§6) Compound 1 was prepared for the first time almost twenty years ago however, until now, it had been tested (both in vitro and in vivo) only in a limited number of tumor cell lines (Hoeschele, J. D., et al., J. Med. Chem. 1994, 37, 2630-2636 and Shamsuddin, S., et al., J. Inorg. Biochem. 1996, 61, 291-301). The Pt(II) and Pt(IV) complexes containing isomeric forms of diaminocyclohexane, [PtCl2(cis-1,4-DACHA](1), [PtCl2(1R,2R-DACH)] (2), [Pt(OXA)(cis-1,4-DACH)] (3), cis,trans,cis-[Pt^IVCl2(OH)2(cis-1,4-DACH)] (4), cis,trans,cis-[Pt^IVCl2(DCA)2(cis-1,4-DACH)] (5), [Pt(CBDCA)(cis-1,4-DACH)] (6), cis,trans,cis-[Pt^IV(OXA)(OH)2(cis-1,4-DACH)] (7), and cis,trans,cis-[Pt^IV(OXA)(DCA)2(cis-1,4-DACH)] (8) were evaluated for their cytotoxic activity towards a panel of human tumor cell lines including cervical (A431), breast (MCF-7), cancers along with a melanoma (A375) and 4 different colon cancer cell lines corresponding to different stages of the disease progression (HCT-15, SW480, CaCo-2, DLD-1). The cytotoxicity was evaluated by means of the MTT test for 72 h treatment with increasing concentrations of the tested compounds.

Experiment [6] has as its system SW480. The experiment can be described thus: MTT cytotoxicity assay, 72 h. Format: cell-based, human. The conditions noted are these: SW480, colon.
Excerpt: as §1, §2, §3, §6

The test system of experiment [7] is A375. The experiment can be described thus: MTT cytotoxicity assay, 72 h. The conditions noted are these: A375, skin. It is filed as cell-based, human.
Excerpt: as §1, §2, §3, §6

Experiment [8] deals with A431. The experiment can be described thus: MTT cytotoxicity assay, 72 h. It is filed as cell-based, human. The conditions noted are these: A431, cervix.
Excerpt: as §1, §2, §3, §6

In experiment [9] the test system is DLD-1. Description: MTT cytotoxicity assay, 72 h. It is filed as cell-based, human. The conditions noted are these: DLD-1, colon.
Excerpt: as §1, §2, §3, §6

Experiment [10] has as its system MCF-7. Description: MTT cytotoxicity assay, 72 h. It is filed as cell-based, human. The conditions noted are these: MCF-7, breast.
Excerpt: as §1, §2, §3, §6

The subject of experiment [11] is CaCo-2. Description: MTT cytotoxicity assay, 72 h. Format: cell-based, human. The conditions noted are these: CaCo-2, colon.
Excerpt: as §5, §2
Briefly, depending upon the growth characteristics of the cell line, 3-8×10^3 cells well^−1, were seeded in 96-well microplates in growth medium (100 μL) and then incubated at 37° C. in a 5% carbon dioxide atmosphere. […] After an overnight incubation, the inhibition of cell growth induced by the tested complexes was determined by measuring the absorbance of each well at 570 nm using a BioRad 680 microplate reader. Mean absorbance for each drug dose was expressed as percentage of the control and plotted vs. drug concentration. […]

Experiment [12] concerns panel of human tumor cell lines (A431, MCF-7, A375, HCT-15, SW480, CaCo-2, DLD-1). Description: MTT cytotoxicity, comparison over the Table 1 panel. The conditions noted are these: in five out of the seven cell lines. It is filed as cell-based. The procedure: as §3, with “After” for “Briefly, depending upon the growth characteristics of the cell line, 3-8×10^3 cells well^−1, were seeded in 96-well microplates in growth medium (100 μL) and then incubated at 37° C. in a 5% carbon dioxide atmosphere. After”
The cytotoxicity was evaluated by means of the MTT test for 72 h treatment with increasing concentrations of the tested compounds.

In experiment [13] the test system is LoVo MDR multidrug resistant colon carcinoma subline. The experiment can be described thus: MTT cytotoxicity assay, cross-resistance profile. Format: cell-based, human.
Excerpt: as §1, §2, §3, §4
In Table 2 are also reported the results obtained in a multidrug resistant (MDR) colon carcinoma subline, LoVo MDR, in which the resistance to doxorubicin, a drug belonging to the MDR spectrum, is associated with an overexpression of multi-specific drug transporters, such as the 170 kDa P-glycoprotein (P-gp) (Wersinger, C., et al., Amino Acids 2000, 19, 667-685). It is well known that acquired MDR, whereby cells become refractory to multiple drugs, poses most important challenge to the success of anticancer chemotherapy.

Regarding “(OC-6-33)-dichloro(cis-1,4-cyclohexanediamine-N,N′)dihydroxyplatinum [Compound 4]”, the IC50 in [1] was 9.42 ± 1.16 µM; in [2] (LoVo-OXP, 72 h, MTT), 9.46 ± 2.15 µM; in experiment [3] (C13*, 72 h, MTT), 13.8 ± 3.53 µM; in experiment [4] it was 6.64 ± 2.7 µM; in experiment [5], 10.3 ± 1.42 µM; in experiment [6] it was 6.32 ± 2.15 µM. In addition, the IC50 in experiment [7] came out at 6.23 ± 1.96 µM; in experiment [8] it was 6.33 ± 1.99 µM; in [9], 7.74 ± 2.16 µM; in [10] it was 7.01 ± 2.05 µM; in experiment [11], 7.12 ± 3.13 µM; in [13] (LoVo-MDR, 72 h, MTT) it was 9.26 ± 2.11 µM. Further, the “R.F. (resistance factor)” value in experiment [2] (IC50 LoVo-OXP / IC50 LoVo, cross-resistance with oxaliplatin) stood at 1.6; in experiment [3] (IC50 C13* / IC50 2008, cross-resistance with cisplatin), 1.5; in [13] (IC50 LoVo-MDR / IC50 LoVo), 1.5. In addition, the “IC50 values fold lower than that of cisplatin” value in experiment [12] is given as “up to 2”.
